Reference: article PMC4387272, “Pharmacokinetic, pharmacodynamic and biomarker evaluation of transforming growth factor-β receptor I kinase inhibitor, galunisertib, in phase 1 study in patients with advanced cancer” (Investigational new drugs, 2014)
Several values for one entry are separate records, joined by “and”; a condition that tells them apart may be missing. Identical values can stand only once. Like-named read-outs stand apart in the source and are kept apart here. Marks after values point to notes of the source that are not given here.

What was measured:
glioma = assay: Radiographic response / clinical benefit (RECIST, Macdonald criteria) in first-in-human dose study; assay type: in vivo; conditions: for Cycles (n) (best response): individual glioma patients with sequenced tumor; for CR/PR/SD ≥6 cycles, Low grade/secondary glioma / CR/PR/SD ≥6 cycles, Primary glioma: number of patients; for Clinical Benefit / No Clinical Benefit: Parts A and B
Description: Starting with Cohort 3, only patients with relapsed and progressive glioma were eligible for this study. All patients were assessed for radiographic responses using Response Evaluation Criteria in Solid Tumors (RECIST) and, for glioma patients, using Macdonald criteria. All patients had to have an Eastern Cooperative Oncology Group performance status of ≤2. Patients were required to have adequate hematologic, hepatic, and renal function and discontinue all previous therapies for cancer at least 4 weeks prior to study enrollment. Exclusion criteria included medically uncontrolled cardiovascular illness, electrocardiogram anomalies, serious pre-existing medical conditions, and any unapproved therapy.
• Part A was a dose escalation study using galunisertib monotherapy administered initially to patients with advanced or metastatic cancer as a daily continuous dosing. Starting with Cohort 3 and for the remainder of the study, patients received galunisertib on an intermittent dose regimen of 14 days on/14 days off for a 28-day cycle. • Part B was a safety study using galunisertib on an intermittent dose regimen at 160 mg/day (80 mg twice daily [BID]) and 300 mg/day (150 mg BID) in combination with lomustine given once every 6 weeks in patients with recurrent malignant glioma who had previously failed approved treatments. • Part C was a relative bioavailability (RBA) crossover study conducted at only one center to assess two new formulations (publication in preparation). All patients were then eligible to continue on 300 mg/day dosing. In this part of the study, patients with different tumor histologies were eligible to participate; the majority of patients had glioma. The only results from Part C presented in this publication are the results of the T cell subset examination. Other results will be published elsewhere.
(§1) A power model was fitted to PK parameter estimates Cmax and AUC(0–24) to assess the extent of dose proportionality. Clinical benefit in this study has been defined as a patient with either a complete response (CR), partial response (PR), and stable disease (SD) ≥6 cycles. MAIP results from plasma samples taken at baseline were compared between patients completing >6 cycles and ≤6 cycles using ANOVA. The analysis included controlling the false discovery rate to 30 % using the Benjamini-Hochberg method. Boxplots showing the distributions at baseline of the potentially prognostic markers are provided. Observed TGF-β-stimulated pSMAD2 (pSMAD2^+) in PBMCs was normalized by TGF-β-stimulated tSMAD2 [(tSMAD2^+) ^0.6[9, 10]] prior to determining the minimum normalized pSMAD2^+ and calculating percentage inhibition post-baseline for each patient. Baseline and minimum post-baseline values for each patient together with maximum percentage inhibition are presented on a line and scatter plot for each patient in Cohort 3 and summary statistics by time point provided from a standard mixed effects regression model, fitting log normalized pSMAD2^+ to the fixed effects of log baseline normalized pSMAD2^+, nominal time point, dose and their interaction and patient as a random effect.
In order to interpret protein and gene expression as potential prognostic factors we used the concept of clinical benefit based on radiographic response and/or stable disease for ≥6 cycles (Table 3).

[1] = system: pSMAD2 in peripheral blood mononuclear cells (PBMCs); assay: pSMAD2 ELISA in peripheral blood mononuclear cells of treated patients; assay type: in vivo, Human; conditions: for inhibition at 160 mg: Homo sapiens, PBMC, 160 mg/day cohort (Part A)
Description: pSMAD2 in peripheral blood mononuclear cells (PBMCs) were assessed by a specific ELISA as previously described, in which a rabbit polyclonal antibody recognizing pSMAD2 was used. Total SMAD2 was also assessed and used to normalize the expression of pSMAD2.
as §1
Using an ELISA to detect changes of pSMAD2 in isolated PBMCs as a PD response marker, we observed changes after galunisertib administration. […] In 11 of the 14 patients, pSMAD2 inhibition was assessed at the observed maximum concentration for galunisertib about 2–6 h after administration on Day 14 of the first cycle. In 6 of the 11 patients, pSMAD2 levels were reduced in relationship to drug concentration, while in the remaining 5 patients, there was no relationship at the expected Cmax (Fig. 2a). […] Once the drug was stopped after 14 days of administration, pSMAD2 changes were assessed for the next 3 days in 2 patients, one in Cohort 1 and 1 in Cohort 3 (Fig. 2c and d). The pSMAD2 inhibition was still present although drug levels were low or undetectable. The mean of the observed percentage inhibition of normalized pSMAD2^+ from Cycle 1 Day 1 and Day 12 for Cohort 3 together with the estimated means from the model are provided in Table 2.

MDC/CCL22 = assay: Multi-analyte immunoassay panel (MAIP) of plasma proteins; assay type: in vivo, Human; conditions: Part A and Part B, data not shown
Description: Plasma samples were analyzed for PD assessments by using a multi-analyte immunoassay panel (MAIP) (Myriad RBM, Austin, TX). The MAIP measurements included 89 plasma proteins. These proteins were evaluated at baseline and during the first cycle of treatment.
MDC/CCL22 is associated with modulating T regulatory cells and it may be involved in the activation of antigen-presenting cells. Whether such levels confer a better prognosis remains to be assessed. The lack of a change in MDC/CCL22 may perhaps indicate that this chemokine is not affected by galunisertib, but long-term examinations will be needed to further confirm this initial impression. Other plasma proteins were also found to be at different levels for patients treated with ≥6 cycles or ≤6 cycles.

[2] = Safety and blood counts in first-in-human dose study; assay type: in vivo
Text: An amendment was introduced to assess T cell subsets in Part B and Part C.

ID1 and CD44 = system: ID1 and CD44; design: method as in PMID 21156287; conditions: 1 patient, surgical re-resection during off-period of intermittent dosing; cited from earlier work
[3] = Part B, in combination with lomustine
[4] = Part B, in combination with lomustine, n=26
[5] = Primary glioma (n=13), IDH1/2 mutation
[6] = Primary glioma (n=13), Other mutation
[7] = Secondary or low grade glioma (n=8), IDH1/2 mutation
[8] = Secondary or low grade glioma (n=8), Other mutation
[9] = patients with advanced cancer, first-in-human dose study

Cc1cccc(-c2nn3c(c2-c2ccnc4ccc(C(N)=O)cc24)CCC3)n1 [galunisertib]
patients with primary glioblastoma showing radiographic responses or SD ≥6 cycles (glioma; 3/13 patients, no IDH1 or IDH2 mutation): 23%
patients with tumors not containing the EGFR variant treated for ≥6 cycles (glioma; 7/13 patients): 54%
patients with tumors containing EGFR variants treated for <6 cycles (glioma; 8/8 patients (2 in Part A and 6 in Part B)): 100%
patients with clinical benefit (CR, PR or SD ≥6 cycles) (glioma; 12 of 79 patients, all parts, all in glioma): 15%
cycles treated, patients still receiving galunisertib as of June 2014 (glioma; Part A, 2 individual patients): 73 cycles and 55 cycles
Cycles on study treatment, median (range) (glioma; Part A, monotherapy, N=39): 2 (1–46)
Cycles (n) (best response) (glioma; Part A, monotherapy): 3 and 2 and 1 and 29 (CR) and 13 (PR) and 22 (PR) and 46 (CR) and 40 (SD)
CR/PR (glioma; Part A, monotherapy, n=30): 5 (16.7) n (%)
CR/PR/SD ≥6 cycles (glioma; Part A, monotherapy, n=30): 6 n (%) and 6 (20.0) n (%)
On study treatment at study closure in 2012 (glioma; Part A, monotherapy, n=30): 2 (6.7) n (%)
CR/PR/SD ≥6 cycles, Low grade/secondary glioma (glioma; Part A, monotherapy): 3
CR/PR/SD ≥6 cycles, Primary glioma (glioma; Part A, monotherapy): 3
cycles treated, patient still receiving galunisertib as of June 2014 (glioma; Part B, 1 patient): 48 cycles
Cycles on study treatment, median (range) (glioma; Part B, in combination with lomustine, N=26): 2 (1–22)
Cycles (n) (best response) (glioma; [3]): 10 (PR) and 12 (SD) and 2 and 4 and 1
CR/PR (glioma; [4]): 2 (7.7) n (%)
CR/PR/SD ≥6 cycles (glioma; [4]): 6 ^* n (%) and 6 (23.1) ^* n (%)
On study treatment at study closure in 2012 (glioma; [4]): 1 (3.8) n (%)
CR/PR/SD ≥6 cycles, Low grade/secondary glioma (glioma; [3]): 4
CR/PR/SD ≥6 cycles, Primary glioma (glioma; [3]): 2
Clinical Benefit (glioma; [5]): 0/13
No Clinical Benefit (glioma; [5]): 0/13
Clinical Benefit (glioma; [6]): 3/13
No Clinical Benefit (glioma; [6]): 10/13
Clinical Benefit (glioma; [7]): 4/8
No Clinical Benefit (glioma; [7]): 1/8
Clinical Benefit (glioma; [8]): 0/8
No Clinical Benefit (glioma; [8]): 3/8
patients with clinical benefit (CR/PR and SD ≥6 cycles) among patients with IDH1/2 mutation (glioma; of the 5 patients with IDH1/2 mutation): 4 patients
patients with a reduction in pSMAD2 in PBMCs ([1]; Cohort 3 (160 mg/day), 9 of 14 patients, first 14 days of treatment): 64%
mean percentage inhibition of pSMAD2 ([1]; Cohort 3, end of 14 days of treatment, PBMCs): approximately 40%
patients with pSMAD2 levels reduced in relationship to drug concentration ([1]; Cohort 3, of 11 patients assessed about 2–6 h after administration on Day 14 of first cycle): 6 patients
inhibition at 160 mg ([1]; Day 1, 0.5 h, PBMCs, mixed-effects model, read-out: Fitted Percentage Inhibition of Normalized pSMAD2): 27%
inhibition at 160 mg ([1]; Day 1, 0.5 h, PBMCs, read-out: Observed Percentage Inhibition of Normalized pSMAD2): 26%
inhibition at 160 mg ([1]; Day 1, 4 h, PBMCs, mixed-effects model, read-out: Fitted Percentage Inhibition of Normalized pSMAD2): 5%
inhibition at 160 mg ([1]; Day 1, 4 h, PBMCs, read-out: Observed Percentage Inhibition of Normalized pSMAD2): 5%
inhibition at 160 mg ([1]; Day 1, 6 h, PBMCs, mixed-effects model, read-out: Fitted Percentage Inhibition of Normalized pSMAD2): -10%
inhibition at 160 mg ([1]; Day 1, 6 h, PBMCs, read-out: Observed Percentage Inhibition of Normalized pSMAD2): -10%
inhibition at 160 mg ([1]; Day 12 or 15 post dose (2, 3, 4, 6 h), PBMCs, mixed-effects model, read-out: Fitted Percentage Inhibition of Normalized pSMAD2): 34%
inhibition at 160 mg ([1]; Day 12 or 15 post dose (2, 3, 4, 6 h), PBMCs, read-out: Observed Percentage Inhibition of Normalized pSMAD2): 39%
pSMAD2 inhibition after drug was stopped ([1]; next 3 days after 14 days of administration, 2 patients, drug levels low or undetectable): still present
post-treatment plasma levels of MDC/CCL22 (MDC/CCL22): did not show a change
lymphocyte counts ([2]; Part B, combination of galunisertib and lomustine, some patients): reduction in lymphocyte counts
bone marrow toxicity (neutrophils, platelets, lymphocyte counts) ([2]; Part C, monotherapy 300 mg/day, patients receiving more than 2 cycles): no comparable bone marrow toxicity
cardiac adverse events [2, 9]: no cardiac adverse events
toxicity / safety profile [2, 9]: favorable safety profile
toxicity / safety profile ([2]; patients with advanced cancer, first-in-human dose study, listed as Galunisertib): favorable toxicity profile
expression of ID1 and CD44 in tumor tissue after treatment (ID1 and CD44): reduced
